According to patent US12370265B2, “Hydrogel for in-vivo release of medication” (UMC Utrecht Holding B.V., priority 2019, dated 2025):

Legend:
[1] = Directional release from hydrogel coated with PCL on one side, in 3% alginate gel; format: physicochemical
Experimental: Release of methylene blue from the hydrogel was simulated in a 3% alginate gel, cross-linked with calcium chloride to obtain a tissue-like consistency. Only the top part of the hydrogel was coated with PCL. The samples were inspected at 0, 1, 2, and 3 hours. Hydrogels were positioned vertically to eliminate any effect of gravity on the direction of release. […] The same experiment was performed with bupivacaine.

[2] = local anaesthetic; cited from earlier work

- cumulative release ([1]; from the PCL-covered direction, after 8 hours): about 2 mg
- time to reach cumulative release of about 2 mg ([1]; non-PCL covered direction): ≤ 1 h
Structure (SMILES): CCCCN1CCCCC1C(=O)Nc1c(C)cccc1C (stereo not drawn) [bupivacaine]
- duration of its effect [2]: approx. 8 hours
